From the supplement of paper PMC6045584
± gives the standard deviation of the averaged measurements.

Key:
[1] = compound: CC(=O)NCC(=O)N1[C@@H]2CC[C@H]1c1ccc(Nc3ncc(C(F)(F)F)c(NC4CCC4)n3)cc12; test: surviving fraction relative to DMSO-only wells; higher = less growth inhibition; settings: exposure time: 5 days
Procedure, shortened: (§1)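 Surviving fraction was calculated by normalising CellTiter-Glo luminescence to the median of DMSO-only wells. Tumour cell lines in log phase were seeded in 384-well plates at 250–500 cells per well, and 24 hours later were exposed continuously for five days to inhibitors at 0.5, 1, 5, 10, 50, 100, 500 and 1000 nM.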

[2] = compound: CC(=O)c1c(C)c2cnc(Nc3ccc(N4CCNCC4)cn3)nc2n(C2CCCC2)c1=O; test: as above; settings: exposure time: 5 days
Procedure, shortened: as §1

| Test System | surviving fraction ([1]; 0.5 nM) | surviving fraction ([1]; 1 nM) | surviving fraction ([1]; 5 nM) | surviving fraction ([1]; 10 nM) | surviving fraction ([1]; 50 nM) | surviving fraction ([1]; 100 nM) | surviving fraction ([1]; 500 nM) | surviving fraction ([1]; 1000 nM) | surviving fraction ([2]; 0.5 nM) | surviving fraction ([2]; 1 nM) | surviving fraction ([2]; 5 nM) | surviving fraction ([2]; 10 nM) | surviving fraction ([2]; 50 nM) | surviving fraction ([2]; 100 nM) | surviving fraction ([2]; 500 nM) | surviving fraction ([2]; 1000 nM) |
| --- | --- | --- | --- | --- | --- | --- | --- | --- | --- | --- | --- | --- | --- | --- | --- | --- |
| H23 LUNG | 0.971 ± 0.037 | 0.95 ± 0.015 | 0.936 ± 0.037 | 0.931 ± 0.029 | 0.949 ± 0.04 | 0.69 ± 0.051 | 0.471 ± 0.0074 | 0.421 ± 0.014 | 1.01 ± 0.035 | 1 ± 0.029 | 1.04 ± 0.038 | 0.928 ± 0.065 | 1.132 ± 0.01 | 1.12 ± 0.068 | 1.15 ± 0.074 | 1.13 ± 0.033 |
| HCC38 BREAST | 1.19 ± 0.12 | 1.19 ± 0.3 | 0.952 ± 0.096 | 1.26 ± 0.31 | 0.747 ± 0.077 | 0.668 ± 0.051 | 0.594 ± 0.15 | 0.455 ± 0.062 | 1.11 ± 0.12 | 1.22 ± 0.16 | 1.23 ± 0.036 | 1.19 ± 0.14 | 1.21 ± 0.15 | 1.09 ± 0.096 | 1.28 ± 0.12 | 1.24 ± 0.11 |
| HCC70 BREAST | 0.976 ± 0.052 | 1.03 ± 0.057 | 0.982 ± 0.099 | 1.01 ± 0.033 | 0.864 ± 0.051 | 0.488 ± 0.026 | 0.243 ± 0.052 | 0.203 ± 0.036 | 1.02 ± 0.051 | 0.999 ± 0.056 | 1.13 ± 0.032 | 1.05 ± 0.034 | 1.155 ± 0.0084 | 1.08 ± 0.08 | 0.983 ± 0.066 | 1.1 ± 0.055 |
| HCC78 LUNG | 0.885 ± 0.16 | 0.798 ± 0.052 | 0.935 ± 0.13 | 0.878 ± 0.28 | 0.735 ± 0.07 | 0.188 ± 0.064 | 0.236 ± 0.082 | 0.298 ± 0.075 | 1.03 ± 0.14 | 0.975 ± 0.063 | 1.29 ± 0.046 | 0.899 ± 0.2 | 1.02 ± 0.25 | 1.17 ± 0.14 | 0.619 ± 0.11 | 0.579 ± 0.041 |
| HCC1395 BREAST | 0.928 ± 0.15 | 1.05 ± 0.12 | 0.979 ± 0.062 | 1.04 ± 0.0025 | 0.962 ± 0.12 | 0.94 ± 0.13 | 0.991 ± 0.027 | 0.928 ± 0.092 | 1.22 ± 0.076 | 0.965 ± 0.17 | 1.19 ± 0.088 | 1.13 ± 0.087 | 1.28 ± 0.09 | 1.1 ± 0.11 | 1.31 ± 0.083 | 1.34 ± 0.07 |
| HCC1806 BREAST | 0.995 ± 0.055 | 0.914 ± 0.11 | 1.14 ± 0.041 | 1.11 ± 0.031 | 0.658 ± 0.057 | 0.471 ± 0.042 | 0.583 ± 0.076 | 0.407 ± 0.04 | 0.984 ± 0.095 | 0.999 ± 0.085 | 1.05 ± 0.046 | 1.08 ± 0.17 | 1.12 ± 0.1 | 1.09 ± 0.024 | 0.941 ± 0.17 | 0.95 ± 0.072 |
| HCC1954 BREAST | 0.891 ± 0.079 | 0.784 ± 0.085 | 1.17 ± 0.054 | 0.986 ± 0.042 | 0.828 ± 0.022 | 0.745 ± 0.14 | 1.07 ± 0.021 | 0.905 ± 0.11 | 0.996 ± 0.22 | 0.907 ± 0.29 | 1.07 ± 0.21 | 0.901 ± 0.4 | 1.39 ± 0.17 | 1.05 ± 0.056 | 1.29 ± 0.054 | 1.36 ± 0.092 |
| HCT15 LARGE INTESTINE | 0.969 ± 0.062 | 0.9727 ± 0.009 | 0.971 ± 0.037 | 0.98 ± 0.036 | 0.394 ± 0.11 | 0.211 ± 0.034 | 0.17 ± 0.041 | 0.0853 ± 0.0072 | 1.09 ± 0.044 | 1.05 ± 0.028 | 1.06 ± 0.025 | 1.03 ± 0.052 | 1.14 ± 0.055 | 1.1 ± 0.038 | 1.12 ± 0.058 | 1.11 ± 0.035 |
| HELA CERVIX | 0.991 ± 0.05 | 1.02 ± 0.092 | 0.977 ± 0.051 | 0.956 ± 0.048 | 0.697 ± 0.053 | 0.4 ± 0.052 | 0.168 ± 0.03 | 0.142 ± 0.015 | 1.03 ± 0.037 | 0.986 ± 0.016 | 1.01 ± 0.046 | 0.959 ± 0.04 | 1.14 ± 0.072 | 1.15 ± 0.034 | 1.16 ± 0.021 | 1.04 ± 0.039 |
| HMLE3 BREAST | 0.923 ± 0.046 | 0.934 ± 0.029 | 1.01 ± 0.053 | 0.941 ± 0.092 | 0.807 ± 0.027 | 0.689 ± 0.0078 | 0.357 ± 0.026 | 0.237 ± 0.041 | 1.05 ± 0.084 | 1.08 ± 0.081 | 1.05 ± 0.026 | 1.03 ± 0.043 | 1.1 ± 0.099 | 0.962 ± 0.086 | 0.925 ± 0.12 | 0.933 ± 0.066 |
| HMT3552 BREAST | 1.16 | 1.06 | 1.01 | 0.934 | 0.148 | 0.47 | 0.121 | 0.116 | 1.05 | 1.05 | 0.895 | 0.991 | 1.31 | 1.25 | 1.17 | 1.19 |
| HOSMNG BONE | 0.997 ± 0.028 | 1.01 ± 0.06 | 0.962 ± 0.033 | 0.989 ± 0.016 | 0.886 ± 0.088 | 0.874 ± 0.041 | 0.449 ± 0.019 | 0.392 ± 0.0087 | 1.03 ± 0.021 | 0.978 ± 0.16 | 1.02 ± 0.042 | 1 ± 0.048 | 1.07 ± 0.072 | 1.05 ± 0.18 | 1.07 ± 0.094 | 1.06 ± 0.16 |
| HS57T BREAST | 0.907 ± 0.056 | 0.894 ± 0.049 | 0.955 ± 0.0027 | 0.94 ± 0.044 | 0.633 ± 0.069 | 0.535 ± 0.025 | 0.443 ± 0.013 | 0.414 ± 0.019 | 1.02 ± 0.025 | 1.08 ± 0.097 | 1.11 ± 0.052 | 1.1 ± 0.031 | 1.16 ± 0.043 | 1.11 ± 0.032 | 0.954 ± 0.055 | 0.96 ± 0.039 |
| HS578T BREAST | 1 ± 0.016 | 0.962 ± 0.088 | 0.918 ± 0.23 | 0.879 ± 0.027 | 0.866 ± 0.085 | 0.721 ± 0.081 | 0.592 ± 0.071 | 0.559 ± 0.11 | 0.985 ± 0.087 | 1.09 ± 0.068 | 1.02 ± 0.11 | 1.02 ± 0.048 | 1.11 ± 0.15 | 1.14 ± 0.19 | 0.949 ± 0.071 | 1.13 ± 0.082 |
| HSSYII SYNOVIAL | 0.921 ± 0.035 | 0.8998 ± 0.0079 | 0.886 ± 0.044 | 0.851 ± 0.05 | 0.438 ± 0.017 | 0.222 ± 0.015 | 0.177 ± 0.015 | 0.185 ± 0.0066 | 0.986 ± 0.015 | 0.935 ± 0.028 | 0.975 ± 0.035 | 1 ± 0.019 | 0.892 ± 0.045 | 0.914 ± 0.07 | 0.811 ± 0.013 | 0.737 ± 0.045 |
| HU09 BONE | 1.05 ± 0.082 | 1.01 ± 0.03 | 1.08 ± 0.075 | 1.11 ± 0.078 | 0.67 ± 0.024 | 0.583 ± 0.011 | 0.3 ± 0.0061 | 0.179 ± 0.023 | 0.993 ± 0.16 | 0.91 ± 0.051 | 1.08 ± 0.022 | 1.05 ± 0.11 | 1.04 ± 0.15 | 1.19 ± 0.049 | 0.984 ± 0.17 | 1.04 ± 0.059 |
